Assay results from PubChem BioAssay AID1259407 (Chemical Carcinogenesis Research Information System (CCRIS), 2018).
Activity calls are given as the source filed them. How the calls were made is not given here.

System: CCRIS mutagenicity, Ames/micronucleus/aberration tests
Experiment: CCRIS mutagenicity studies
Details: Test System: AMES SALMONELLA TYPHIMURIUM

Measured: mutagenic call

O=C(CCCN1CCN(c2ccccn2)CC1)c1ccc(F)cc1
inactive: Strain/Indicator: TA98, Metabolic Activation: MOUSE, LIVER, S-9, PHENOBARBITAL, Method: STANDARD PLATE inactive; negative | Strain/Indicator: TA98, Metabolic Activation: NONE, Method: STANDARD PLATE inactive; negative | Strain/Indicator: TA98, Metabolic Activation: RAT, LIVER, S-9, AROCLOR 1254, Method: PREINCUBATION inactive; negative | Strain/Indicator: TA98, Metabolic Activation: RAT, LIVER, S-9, AROCLOR 1254, Method: STANDARD PLATE inactive; negative | Strain/Indicator: TA100, Metabolic Activation: NONE, Method: STANDARD PLATE inactive; negative | Strain/Indicator: TA100, Metabolic Activation: RAT, LIVER, S-9, AROCLOR 1254, Method: STANDARD PLATE inactive; negative | Strain/Indicator: TA1530, Metabolic Activation: NONE, Method: STANDARD PLATE inactive; negative | Strain/Indicator: TA1530, Metabolic Activation: RAT, LIVER, S-9, AROCLOR 1254, Method: STANDARD PLATE inactive; negative | Strain/Indicator: TA1535, Metabolic Activation: NONE, Method: STANDARD PLATE inactive; negative | Strain/Indicator: TA1535, Metabolic Activation: RAT, LIVER, S-9, AROCLOR 1254, Method: STANDARD PLATE inactive; negative | Strain/Indicator: TA1537, Metabolic Activation: NONE, Method: STANDARD PLATE inactive; negative | Strain/Indicator: TA1537, Metabolic Activation: RAT, LIVER, S-9, AROCLOR 1254, Method: STANDARD PLATE inactive; negative | Strain/Indicator: TA1538, Metabolic Activation: NONE, Method: STANDARD PLATE inactive; negative | Strain/Indicator: TA1538, Metabolic Activation: RAT, LIVER, S-9, AROCLOR 1254, Method: STANDARD PLATE inactive; negative

CC(=O)Nc1cccc2ncccc12
inactive: Strain/Indicator: TA98, Metabolic Activation: NONE, Method: PREINCUBATION inactive; negative | Strain/Indicator: TA98, Metabolic Activation: RAT, LIVER, S-9, KANECHLOR 500, Method: PREINCUBATION inactive; negative | Strain/Indicator: TA100, Metabolic Activation: NONE, Method: PREINCUBATION inactive; negative | Strain/Indicator: TA100, Metabolic Activation: RAT, LIVER, S-9, KANECHLOR 500, Method: PREINCUBATION inactive; negative
